Assay results reported in US7935532B2, “DWF4 polynucleotides, polypeptides and uses thereof” (Arizona Board of Regents for and on behalf of Arizona State …, priority 1999, dated 2011).

Key:
dwf8-1 = experiment: Feeding of 22-OHCR to dwf8-1 dwarf mutant; assay type: in vivo, Arabidopsis thaliana; details: unpublished data
6-week-old dwf4 plants = experiment: Treatment of soil-grown mature dwf4 plants with BR intermediates and BL (pedicel elongation); assay type: in vivo, Arabidopsis thaliana
Procedure: To determine whether the results of the seedling feeding experiments could be applicable to soil-grown mature plants, 6-week-old dwf4 plants were treated with BR intermediates and BL. Concentrations of applied intermediates were adjusted empirically to optimize responses. Consistent with the results obtained from the seedlings experiments, only 22α-hydroxylated compounds can rescue the dwf4 phenotype. The elongation response was only observed in the young tissues of the inflorescence, regardless of whether the BRs were applied locally or sprayed over the entire plant. In contrast to the striking elongation of the peduncles and pedicels, fertility was not restored by BR treatment. The sterility in dwf4 is hypothesized to be mechanical, which means that the filaments are shorter than the carpels such that the pollen is shed onto the ovary walls rather than onto the stigmatic surface. In fact, if dwf4 plants are hand pollinated using […], fertility increases.

dwf4 seedlings [1] = experiment: Feeding of BR biosynthetic intermediates to dwf4 seedlings in liquid media (rescue, dose-response); assay type: in vivo, Arabidopsis thaliana; details: for rescue of the light-grown dwf4 phenotype: liquid media
Procedure: In view of the results described above, we hypothesized that DWF4 mediates one or more of several steroid hydroxylation steps in the BR biosynthetic pathway. To test this, dwf4 was grown on all of the available biosynthetic intermediates in the BR biosynthetic pathways and examined to ascertain which intermediates could rescue the dwarf phenotype. In addition to the intermediates belonging to the early C-6 oxidation and late C-6 oxidation pathways (Choi et al. (1997), supra), 22α-hydroxycampesterol (22-OHCR), 6α-hydroxycastasterone (6-OHCT) (Takatsuto et al. (1997) J. Chem. Res. (synop.) 11:418-419), and […] (S. Takatsuto, T. Watanabe, T. Noguchi, and S. Fujioka, unpublished data) were synthesized and tested.
Germinated seedlings were transferred to media supplemented with one of the intermediates or BL to pinpoint the step catalyzed by DWF4. […] In addition, the rescued seedlings were less green than the dwarfs. These experiments were conducted in liquid media. Feeding experiments performed in the dark yielded similar results.
However, on CT the overall morphology of dwf4 was essentially rescued to wild-type phenotype at 3×10^−7 M and higher, whereas with 6-deoxoCT, rescue occurred with as little as 10^−7 M and may have even been inhibitory at higher concentrations. Of particular interest is the more dramatic response of the epicotyls versus the smaller response of the hypocotyls to CT. This same phenomenon was true for seedlings treated with >10^−7 M 6-deoxoCT.
A higher concentration of CT for dark-grown seedlings, compared with light-grown seedlings, 3×10^−6 M (FIG. 5B), was required to convert the hypocotyl to a length similar to that of the wild type.

dwf4 seedlings [2] = experiment: Brassinolide response of seedlings in liquid culture (hypocotyl length); assay type: in vivo, Arabidopsis thaliana; details: liquid medium, 10^−6 M BL
Procedure: Gibberellic acid (GA) response was assayed on plants grown individually in 5.7-cm pots. Once inflorescences reached 1 to 2 mm in height, they were sprayed weekly with 1 mM GA3 (Sigma). Control plants were sprayed with water. One week after the third spraying, plants were collected, and the length of the main stem was measured between the top of the rosette and the base of the most distal pedicel; 13 to 18 plants of each line were measured per treatment. Auxin response was tested by growing seedlings for 10 days under 16 hr of light on vertically oriented agar plates containing various concentrations of 2,4-D (Gibco, Grand Island, N.Y.). Genetic interaction with the hy2 mutation was tested by growing seedlings under continuous light for 7 days. Brassinolide (BL) response was determined in liquid culture, as described by Clouse et al. (1993) supra, except that three or four seedlings were grown in each well of a 24-well culture plate for 7 days. Measurements were taken for 10 to 20 seedlings for each genotype and condition, under a dissection microscope fitted with an ocular micrometer.
In the course of our studies, we prepared a genomic library from dwf4-1, from which we isolated a clone in which a fragment of T-DNA interrupts a gene encoding a putative cytochrome P450 steroid hydroxylase.

rice lamina = details: Fujioka et al. (1995b); cited from earlier work

Row | Structure (SMILES) | rescue of dwf8-1 dwarf mutant (dwf8-1) | pedicel elongation response (6-week-old dwf4 plants; 22-OHCR 10^−5 M) | rescue of the light-grown dwf4 phenotype (dwf4 seedlings [1]; light-grown seedlings) | effectiveness in rescuing the dwf4 phenotype, light versus dark (dwf4 seedlings [1]; unpublished data) | bioactivity in dwf4 pedicel elongation (6-week-old dwf4 plants; BL 10^−7 M) | degree of pedicel elongation response (6-week-old dwf4 plants; BL 10^−7 M versus precursors) | dwf4 hypocotyl height (dwf4 seedlings [2]) | activity relative to 6-oxoCN (rice lamina) | concentration required to convert the dwf4 hypocotyl to a length similar to wild type (dwf4 seedlings [1]; dark-grown seedlings) | concentration at which dwf4 overall morphology is rescued to wild-type phenotype (dwf4 seedlings [1]; light-grown seedlings, dose-response)
1 | CC(C)[C@H](C)C[C@H](O)[C@@H](C)[C@H]1CC[C@H]2[C@@H]3CC=C4C[C@@H](O)CC[C@]4(C)[C@H]3CC[C@]12C [22-OHCR, 22α-hydroxycampesterol] | not rescued | dramatic elongation response | rescued | more effective in the light | – | – | – | – | – | –
2 | CC(C)[C@H](C)[C@@H](O)[C@H](O)[C@@H](C)[C@H]1CC[C@H]2[C@@H]3COC(=O)[C@H]4C[C@H](O)[C@H](O)C[C@]4(C)[C@H]3CC[C@]12C [BL, 2α, 3α, 22(R), 23(R)-tetrahydroxy-24(S)-methyl-B-homo-7-oxa-5α-cholestan-6-one] | – | – | – | – | highest bioactivity | approximately the same degree of response as its precursor compounds at 10^−6 M | restored to wild-type height | – | – | –
3 | CC(C)[C@H](C)C[C@H](O)[C@@H](C)[C@H]1CC[C@H]2[C@@H]3CC(=O)[C@H]4C[C@@H](O)CC[C@]4(C)[C@H]3CC[C@]12C [CT, Cathasterone] | – | – | rescued | – | – | – | – | ~500 times | 3 µM | ≥ 3×10^−7 M
